We go through three compounds from article PMC7700572, “Synthesis, Kinetic and Conformational Studies of 2-Substituted-5-(β-D-glucopyranosyl)-pyrimidin-4-ones as Potential Inhibitors of Glycogen Phosphorylase” (Molecules, 2020).

The target of this test is T1, rabbit muscle glycogen phosphorylase (RMGP) (Oryctolagus cuniculus, UniProt P00489).
T1 construct: gene PYGM
T1 sequence (P00489 2-843): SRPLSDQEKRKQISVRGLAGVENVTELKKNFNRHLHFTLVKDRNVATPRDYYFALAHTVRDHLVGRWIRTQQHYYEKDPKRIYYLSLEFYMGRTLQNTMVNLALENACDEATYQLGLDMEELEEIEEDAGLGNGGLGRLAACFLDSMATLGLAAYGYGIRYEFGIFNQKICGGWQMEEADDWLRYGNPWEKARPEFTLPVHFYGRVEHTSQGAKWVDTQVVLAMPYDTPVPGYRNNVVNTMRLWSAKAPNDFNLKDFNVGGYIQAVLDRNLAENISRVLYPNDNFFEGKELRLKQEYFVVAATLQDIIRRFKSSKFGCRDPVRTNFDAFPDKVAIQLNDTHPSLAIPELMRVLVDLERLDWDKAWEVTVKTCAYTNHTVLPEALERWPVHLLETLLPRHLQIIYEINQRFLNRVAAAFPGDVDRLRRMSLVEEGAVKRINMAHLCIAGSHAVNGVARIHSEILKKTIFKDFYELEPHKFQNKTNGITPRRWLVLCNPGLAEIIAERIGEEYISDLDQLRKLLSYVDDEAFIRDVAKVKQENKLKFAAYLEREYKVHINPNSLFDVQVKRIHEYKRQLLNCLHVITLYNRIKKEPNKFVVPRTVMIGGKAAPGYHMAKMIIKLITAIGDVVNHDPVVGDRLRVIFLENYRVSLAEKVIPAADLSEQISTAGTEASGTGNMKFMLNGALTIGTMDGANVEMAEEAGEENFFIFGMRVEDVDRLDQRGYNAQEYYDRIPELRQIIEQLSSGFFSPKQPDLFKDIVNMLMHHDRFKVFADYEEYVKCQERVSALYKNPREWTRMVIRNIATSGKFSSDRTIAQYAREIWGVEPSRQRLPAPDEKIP
As to the kind of experiment: enzyme kinetics in the direction of glycogen synthesis, RMGP isolated from rabbit skeletal muscle, […] AMP. The test is classed as biochemical.
Usually IC50 stands for the point on the concentration scale where inhibition reaches its midpoint. A lower IC50 goes with greater potency in that assay. On to `O=c1[nH]cc([C@@H]2O[C@H](CO)[C@@H](O)[C@H](O)[C@H]2O)c(=O)[nH]1` [compound 4, 5-(β-D-Glucopyranosyl)pyrimidin-2,4-dione], for which the concentration for half-maximal inhibition (IC50) turned out to be 88.5 ± 4.3 µM.
In turn, `Nc1ncc([C@@H]2O[C@H](CO)[C@@H](O)[C@H](O)[C@H]2O)c(=O)[nH]1` [compound 5, 2-Amino-5-(β-D-glucopyranosyl)pyrimidin-4(3H)-one] had an IC50 of 396 ± 10.8 µM.
With `O=c1[nH]c(Nc2ccc3[nH]c4ccccc4c(=O)c3c2)ncc1[C@@H]1O[C@H](CO)[C@@H](O)[C@H](O)[C@H]1O` [compound 6, 2-[(Acridin-9(10H)-on-2-yl)amino]-5-(β-D-glucopyranosyl)pyrimidin-4(3H)-one], the concentration for half-maximal inhibition (IC50) came to 5.4 ± 0.5 µM.
